Experimental findings from patent publication US7795178B2, “Fungicidal active combinations spiroxamine, prothioconazole and tebuconazole” (Bayer CropScience AG, priority 2003, dated 2010) are described below.

Assay type in all cases: in vivo
Assay [1] deals with Erysiphe graminis f.sp.tritici. Nature of the assay: Erysiphe test (wheat)/protective. Particulars: protective, application rate 125 g/ha, evaluation 6 days after inoculation. As to the method:
Erysiphe Test (Wheat)/Protective To produce a suitable preparation of active compound, a commercial formulation of active compound or active compound combination is diluted with water to the desired concentration. To test for protective activity, young plants are sprayed with the active compound preparation at the stated application rate. After the spray coating has dried on, the plants are dusted with spores of Erysiphe graminis f.sp.tritici. The plants are placed in a greenhouse at a temperature of about 20° C. and a relative atmospheric humidity of about 80% to promote the development of mildew pustules. Evaluation is carried out 6 days after the inoculation. 0% means an efficacy which corresponds to that of the control, whereas an efficacy of 100% means that no infection is observed.

Another assay has as its system Leptosphaeria nodorum. Nature of the assay: Leptosphaeria nodorum test (wheat)/curative. Particulars: curative, application rate 500 g/ha, evaluation 12 days after inoculation. As to the method:
Leptosphaeria nodorum Test (Wheat)/Curative To produce a suitable preparation of active compound, a commercial formulation of active compound or active compound combination is diluted with water to the desired concentration. To test for curative activity, young plants are sprayed with a conidia suspension of Leptosphaeria nodorum. The plants remain in an incubation cabin at 20° C. and 100% relative atmospheric humidity for 48 hours and are then sprayed with the active compound preparation at the stated application rate. The plants are placed in a greenhouse at a temperature of about 15° C. and a relative atmospheric humidity of about 80%. Evaluation is carried out 12 days after the inoculation. 0% means an efficacy which corresponds to that of the control, whereas an efficacy of 100% means that no infection is observed.

Assay [2] relates to Fusarium nivale var. majus. Nature of the assay: Fusarium nivale (var. majus) test (wheat)/curative. Particulars: curative, evaluation 11 days after inoculation. As to the method:
Fusarium nivale (var. majus) Test (Wheat)/Curative To produce a suitable preparation of active compound, a commercial formulation of active compound or active compound combination is diluted with water to the desired concentration. To test for curative activity, young plants are sprayed with a conidia suspension of Fusarium nivale var. majus. The plants remain in an incubation cabin at 15° C. and 100% relative atmospheric humidity for 24 hours and are then sprayed with the active compound preparation at the stated application rate. After the spray coating has dried on, the plants remain in a greenhouse under transparent incubation hoods at a temperature of about 15° C. and a relative atmospheric humidity of about 100%. Evaluation is carried out 11 days after the inoculation. 0% means an efficacy which corresponds to that of the control, whereas an efficacy of 100% means that no infection is observed.

SMILES strings stand for the structures.

As to `CCCN(CC)CC1COC2(CCC(C(C)(C)C)CC2)O1` (stereo not drawn) [(I) spiroxamine, 8-tert-butyl-1,4-dioxaspiro[4.5]decan-2-ylmethyl(ethyl)(propyl)amine], the Efficacy in % in assay [1] was determined as 33%; in the assay on Leptosphaeria nodorum, 0%. The “Efficacy in % found” value in assay [2] (application rate 140 g/ha) came to 17%.
With `OC(Cc1ccccc1Cl)(Cn1nc[nH]c1=S)C1(Cl)CC1` (stereo not drawn) [(II) prothioconazole, prothioconazole], the Efficacy in % in assay [1] was 78%; in the assay with Leptosphaeria nodorum, 20%. Moreover, the “Efficacy in % found” value in assay [2] (application rate 55 g/ha) was found to be 17%.
For the compound `CC(C)(C)C(O)(CCc1ccc(Cl)cc1)Cn1cncn1` (stereo not drawn) [(III) tebuconazole, tebuconazole], the Efficacy in % in assay [1] was found to be 78%; in the assay with Leptosphaeria nodorum it was 40%. Moreover, the “Efficacy in % found” value in assay [2] (application rate 55 g/ha) turned out to be 33%.
